# Test results reported in patent US6358885B1, “Substituted phenylheterocyclic herbicides” (Mississippi State University, priority 1992, dated 2002).
# Assays:
# chickweed = test: Test B preemergence/postemergence greenhouse plant response rating 0 to 10; type: in vivo, Stellaria media; conditions: 0 to 10 scale
# How it was run: (§1)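 Planted seeds are treated preemergence with compound dissolved in a non-phytotoxic solvent, while postemergence applications go onto plants of two to eighteen cm. Plants stay in the greenhouse twelve to sixteen days and are then rated visually relative to controls.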
# sugar beet = test: as above; type: in vivo, Beta vulgaris; conditions: 0 to 10 scale
# How it was run: as §1
# bedstraw = test: Test C preemergence/postemergence greenhouse plant response rating 0 to 100; type: in vivo, Galium aparine; conditions: POSTEMERGENCE
# How it was run: (§2)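 Compounds in non-phytotoxic solvent went onto sandy loam before emergence (seeded one day earlier) or onto plants at the one-to-four leaf stage. Duck salad was treated via flood water (~2.5 cm, maintained) over silt loam.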
# barley = test: Test B preemergence/postemergence greenhouse plant response rating 0 to 10; type: in vivo, Hordeum vulgare; conditions: 0 to 10 scale
# How it was run: as §1
# corn [1] = test: Test C preemergence/postemergence greenhouse plant response rating 0 to 100; type: in vivo, Zea mays; conditions: POSTEMERGENCE; for Plant response rating, Corn: 0 to 100 scale
# How it was run: as §2
# rice = test: Test C flood test plant response rating 0 to 100; type: in vivo, Oryza sativa; conditions: for Plant response rating (0 to 100), Rice Japonica: under POSTEMERGENCE head (flood test species); for Plant response rating Rice Japonica: flood test species listed under POSTEMERGENCE, 0 to 100 scale
# How it was run: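 Compounds in non-phytotoxic solvent applied preemergence to sandy loam one day after planting, postemergence at the 1–4 leaf stage, or to ~2.5 cm floodwater over silt loam.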
# blackgrass = test: Test B preemergence/postemergence greenhouse plant response rating 0 to 10; type: in vivo, Alopecurus myosuroides; conditions: 0 to 10 scale
# How it was run: as §1
# barnyardgrass = test: as above; type: in vivo, Echinochloa crus-galli; conditions: 0 to 10 scale
# How it was run: as §1
# rape = test: Test C preemergence/postemergence greenhouse plant response rating 0 to 100; type: in vivo, Brassica napus; conditions: POSTEMERGENCE; for Plant response rating, Rape: 0 to 100 scale
# How it was run: as §2
# corn [2] = test: Test B preemergence/postemergence greenhouse plant response rating 0 to 10; type: in vivo, Zea mays; conditions: 0 to 10 scale
# How it was run: as §1
# ryegrass = test: Test C preemergence/postemergence greenhouse plant response rating 0 to 100; type: in vivo, Lolium multiflorum; conditions: POSTEMERGENCE; for Plant response rating Ryegrass: 0 to 100 scale
# How it was run: as §2
# purple nutsedge = test: Test B preemergence/postemergence greenhouse plant response rating 0 to 10; type: in vivo, Cyperus rotundus; conditions: 0 to 10 scale
# How it was run: as §1
# sorghum = test: as above; type: in vivo, Sorghum bicolor; conditions: 0 to 10 scale
# How it was run: as §1
# crabgrass = test: Test C preemergence/postemergence greenhouse plant response rating 0 to 100; type: in vivo, Digitaria sanguinalis; conditions: POSTEMERGENCE; for Plant response rating, Crabgrass: 0 to 100 scale
# How it was run: as §2
# wild oat = test: as above; type: in vivo, Avena fatua; conditions: POSTEMERGENCE; for Plant response rating, Wild oat: 0 to 100 scale
# How it was run: as §2
# wheat = test: as above; type: in vivo, Triticum aestivum; conditions: POSTEMERGENCE; for Plant response rating, Wheat: 0 to 100 scale
# How it was run: as §2
# morningglory = test: as above; type: in vivo, Ipomoea hederacea; conditions: POSTEMERGENCE; for Plant response rating, Morningglory: 0 to 100 scale
# How it was run: as §2
# velvetleaf = test: Test B preemergence/postemergence greenhouse plant response rating 0 to 10; type: in vivo, Abutilon theophrasti; conditions: 0 to 10 scale
# How it was run: as §1
compound,measurement,setting,value
C=C(Cl)COc1cc(-c2nn3c(c2Cl)CCCC3)c(F)cc1Cl [Compound 40],"Plant response rating, Chickweed","chickweed; POSTEMERGENCE, Rate 50 g/ha",10
same,"Plant response rating, Chickweed","chickweed; POSTEMERGENCE, Rate 200 g/ha",10
same,"Plant response rating, Chickweed","chickweed; PREEMERGENCE, Rate 50 g/ha",0
same,"Plant response rating, Chickweed","chickweed; Rate 200 g/ha, PREEMERGENCE",5
same,"Plant response rating, Sugar beet","sugar beet; POSTEMERGENCE, Rate 50 g/ha",10
same,"Plant response rating, Sugar beet","sugar beet; PREEMERGENCE, Rate 50 g/ha",9
same,"Plant response rating, Sugar beet","sugar beet; Rate 200 g/ha, POSTEMERGENCE",10
same,"Plant response rating, Sugar beet","sugar beet; Rate 200 g/ha, PREEMERGENCE",9
same,"Plant response rating, Bedstraw","bedstraw; 125 g/ha, 0 to 100 scale",60
same,"Plant response rating (0 to 100), Bedstraw",bedstraw; Rate 16 g/ha,30
same,"Plant response rating (0 to 100), Bedstraw",bedstraw; Rate 31 g/ha,30
same,"Plant response rating, Barley","barley; POSTEMERGENCE, Rate 50 g/ha",4
same,"Plant response rating, Barley","barley; POSTEMERGENCE, Rate 200 g/ha",5
same,"Plant response rating, Barley","barley; PREEMERGENCE, Rate 50 g/ha",0
same,"Plant response rating, Barley","barley; Rate 200 g/ha, PREEMERGENCE",1
same,"Plant response rating, Corn",corn [1]; 62 g/ha,30
same,"Plant response rating, Corn",corn [1]; 125 g/ha,30
same,"Plant response rating (0 to 100), Corn",corn [1]; Rate 16 g/ha,30
same,"Plant response rating (0 to 100), Corn",corn [1]; Rate 31 g/ha,30
same,"Plant response rating (0 to 100), Rice Japonica",rice; Rate 16 g/ha,35
same,"Plant response rating (0 to 100), Rice Japonica",rice; Rate 31 g/ha,35
same,Plant response rating Rice Japonica,rice; 62 g/ha,40
same,Plant response rating Rice Japonica,rice; 125 g/ha,40
same,"Plant response rating, Blackgrass","blackgrass; POSTEMERGENCE, Rate 50 g/ha",2
same,"Plant response rating, Blackgrass","blackgrass; POSTEMERGENCE, Rate 200 g/ha",3
same,"Plant response rating, Blackgrass","blackgrass; Rate 200 g/ha, PREEMERGENCE",2
same,"Plant response rating, Barnyardgrass","barnyardgrass; POSTEMERGENCE, Rate 50 g/ha",4
same,"Plant response rating, Barnyardgrass","barnyardgrass; POSTEMERGENCE, Rate 200 g/ha",4
same,"Plant response rating, Barnyardgrass","barnyardgrass; PREEMERGENCE, Rate 50 g/ha",1
same,"Plant response rating, Barnyardgrass","barnyardgrass; Rate 200 g/ha, PREEMERGENCE",3
same,"Plant response rating, Rape",rape; 62 g/ha,70
same,"Plant response rating, Rape",rape; 125 g/ha,70
same,"Plant response rating (0 to 100), Rape",rape; Rate 16 g/ha,50
same,"Plant response rating (0 to 100), Rape",rape; Rate 31 g/ha,70
same,"Plant response rating, Corn","corn [2]; POSTEMERGENCE, Rate 50 g/ha",4
same,"Plant response rating, Corn","corn [2]; POSTEMERGENCE, Rate 200 g/ha",5
same,"Plant response rating, Corn","corn [2]; PREEMERGENCE, Rate 50 g/ha",0
same,"Plant response rating, Corn","corn [2]; Rate 200 g/ha, PREEMERGENCE",1
same,Plant response rating Ryegrass,ryegrass; 62 g/ha,30
same,Plant response rating Ryegrass,ryegrass; 125 g/ha,40
same,"Plant response rating (0 to 100), Ryegrass",ryegrass; Rate 16 g/ha,10
same,"Plant response rating (0 to 100), Ryegrass",ryegrass; Rate 31 g/ha,20
same,"Plant response rating, Nutsedge","purple nutsedge; POSTEMERGENCE, Rate 50 g/ha",2
same,"Plant response rating, Nutsedge","purple nutsedge; PREEMERGENCE, Rate 50 g/ha",0
same,"Plant response rating, Nutsedge","purple nutsedge; Rate 200 g/ha, POSTEMERGENCE",4
same,"Plant response rating, Nutsedge","purple nutsedge; Rate 200 g/ha, PREEMERGENCE",0
same,"Plant response rating, Sorghum","sorghum; POSTEMERGENCE, Rate 50 g/ha",4
same,"Plant response rating, Sorghum","sorghum; PREEMERGENCE, Rate 50 g/ha",0
same,"Plant response rating, Sorghum","sorghum; Rate 200 g/ha, POSTEMERGENCE",5
same,"Plant response rating, Sorghum","sorghum; Rate 200 g/ha, PREEMERGENCE",1
same,"Plant response rating, Crabgrass",crabgrass; 62 g/ha,10
same,"Plant response rating, Crabgrass",crabgrass; 125 g/ha,10
same,"Plant response rating (0 to 100), Crabgrass",crabgrass; Rate 16 g/ha,10
same,"Plant response rating (0 to 100), Crabgrass",crabgrass; Rate 31 g/ha,10
same,"Plant response rating, Wild oat",wild oat; 62 g/ha,30
same,"Plant response rating, Wild oat",wild oat; 125 g/ha,40
same,"Plant response rating (0 to 100), Wild oat",wild oat; Rate 16 g/ha,20
same,"Plant response rating (0 to 100), Wild oat",wild oat; Rate 31 g/ha,20
same,"Plant response rating, Wheat",wheat; 62 g/ha,40
same,"Plant response rating, Wheat",wheat; 125 g/ha,50
same,"Plant response rating (0 to 100), Wheat",wheat; Rate 16 g/ha,20
same,"Plant response rating (0 to 100), Wheat",wheat; Rate 31 g/ha,30
same,"Plant response rating, Morningglory",morningglory; 62 g/ha,50
same,"Plant response rating, Morningglory",morningglory; 125 g/ha,70
same,"Plant response rating (0 to 100), Morningglory",morningglory; Rate 16 g/ha,50
same,"Plant response rating (0 to 100), Morningglory",morningglory; Rate 31 g/ha,50
same,"Plant response rating, Velvetleaf","velvetleaf; POSTEMERGENCE, Rate 50 g/ha",2
same,"Plant response rating, Velvetleaf","velvetleaf; PREEMERGENCE, Rate 50 g/ha",2
same,"Plant response rating, Velvetleaf","velvetleaf; Rate 200 g/ha, POSTEMERGENCE",10
same,"Plant response rating, Velvetleaf","velvetleaf; Rate 200 g/ha, PREEMERGENCE",8
